Source: patent US8071592B2 (priority 2006, dated 2011)
Counter-ions that a name gives are not always drawn. Like-named read-outs stand apart in the source and are kept apart here.

How the values were obtained:
[1] = tested on: Mycobacterium tuberculosis H37Rv; assay: Mycobacterium tuberculosis H37Rv Inhibition Assay (resazurin, MIC); format: cell-based; details: 144 h
[2] = tested on: Gram-positive organisms (Staphylococcus aureus, Streptococcus pneumoniae, Streptococcus pyogenes, Enterococcus faecalis, Enterococcus faecium) and …; format: cell-based; details: against a strain of at least one of the organisms listed; tested in at least one exemplified salt form
[3] = ATCC 25618 / H37Rv, H37Rv strain (ATCC25618), Middlebrook 7H9+ADC medium, six days at 37° C., resazurin fluorescence after 48 hours, read-out: MIC value
[4] = ATCC 25618 / H37Rv, read-out: MIC value, H37Rv strain (ATCC25618), Middlebrook 7H9+ADC medium, six days at 37° C., resazurin fluorescence after 48 hours

Structure (SMILES)	MIC [1, 3] [µg/mL]	also measured
O=C1CSc2ccc(CNC[C@@H]3C[C@H](O)CN(CCn4c(=O)ccc5ccc(F)cc54)C3)nc2N1 (racemic) [Example 158]	≤ 4	
O=c1cnc2ccc(F)cc2n1CCN1CC[C@H](NCc2cc3c(nn2)OCCO3)[C@H](O)C1 (single isomer, unassigned) [Example 193]	≤ 4	
Cl.O=c1ccc2ccc(F)cc2n1CCN1CCC(NCc2cc3c(cn2)OCCO3)CC1 [Example 2, 1-(2-{4-[(2,3-dihydro[1,4]dioxino[2,3-c]pyridin-7-ylmethyl)amino]-1-piperidinyl}ethyl)-7-fluoro-2(1H)-quinolinone Hydrochloride]	≤ 4	
O=c1ccc2ncc(F)cc2n1CCN1CCC(NCc2cc3c(cn2)OCCO3)CC1 [Example 7, 1-(2-{4-[(2,3-Dihydro[1,4]dioxino[2,3-c]pyridin-7-ylmethyl)amino]-1-piperidinyl}ethyl)-7-fluoro-1,5-naphthyridin-2(1H)-one Hydrochloride]	≤ 4	
O=c1ccc2ncc(F)cc2n1CCN1CCC(NCc2cc3c(nn2)OCCO3)CC1 [Example 9, Hydrochloride]		MIC ([1]; ATCC25618|H37RV, H37Rv strain (ATCC25618), Middlebrook 7H9+ADC medium, six days at 37° C., resazurin fluorescence after 48 hours, read-out: MIC value): ≤ 4 µg/mL
COc1ccc2ccc(=O)n(CCN3CCC(NCc4cc5c(nn4)OCCO5)CC3)c2n1 [Example 17, 1-(2-{4-[(6,7-dihydro[1,4]dioxino[2,3-c]pyridazin-3-ylmethyl)amino]-1-piperidinyl}ethyl)-7-(methyloxy)-1,8-naphthyridin-2(1H)-one Dihydrochloride]	≤ 4	
O=c1cnc2ccc(F)cc2n1CCN1CCC(NCc2cc3c(cn2)OCCO3)CC1 [Example 20, 1-(2-{4-[(2,3-dihydro[1,4]dioxino[2,3-c]pyridin-7-ylmethyl)amino]-1-piperidinyl}ethyl)-7-fluoro-2(1H)-quinoxalinone Dihydrochloride]	≤ 4	
COc1ccc2ncc(=O)n(CCN3CCC(NCc4cc5c(cn4)OCCO5)CC3)c2n1 [Example 37, 4-(2-{4-[(2,3-dihydro[1,4]dioxino[2,3-c]pyridin-7-ylmethyl)amino]-1-piperidinyl}ethyl)-6-(methyloxy)pyrido[2,3-b]pyrazin-3(4H)-one Dihydrochloride]	≤ 4	
O=c1cnc2ccc(F)cc2n1CCN1CCC(NCc2cc3c(cn2)OCC3)CC1 [Example 38, 1-(2-{4-[(2,3-dihydrofuro[2,3-c]pyridin-5-ylmethyl)amino]-1-piperidinyl}ethyl)-7-fluoro-2(1H)-quinoxalinone Dihydrochloride]	≤ 4	
COc1cnc2ncc(=O)n(CCN3CCC(NCc4cc5c(cn4)OCCO5)CC3)c2c1.O=CO.O=CO [Example 51B, 1-(2-{4-[(2,3-dihydro[1,4]dioxino[2,3-c]pyridin-7-ylmethyl)amino]-1-piperidinyl}ethyl)-7-(methyloxy)pyrido[2,3-b]pyrazin-2(1H)-one diformate]	≤ 4	
COc1ccc2ccc(=O)n(CCN3C[C@@H](CNCc4ccc5c(n4)NC(=O)CO5)[C@@H](O)C3)c2c1 [Example 53, 6-({[((3R,4R)-4-hydroxy-1-{2-[7-(methyloxy)-2-oxo-1(2H)-quinolinyl]ethyl}-3-pyrrolidinyl)methyl]amino}methyl)-2H-pyrido[3,2-b][1,4]oxazin-3(4H)-one dihydrochloride]		MIC [1, 4]: ≤ 4 µg/mL
O=c1ccc2c(F)cc3c(c2n1CCN1CCC(NCc2cc4c(cn2)OCCO4)CC1)OCCO3 [Example 57, 10-(2-{4-[(2,3-dihydro[1,4]dioxino[2,3-c]pyridin-7-ylmethyl)amino]-1-piperidinyl}ethyl)-6-fluoro-2,3-dihydro[1,4]dioxino[2,3-h]quinolin-9(10H)-one hydrochloride]		MIC [1, 4]: ≤ 4 µg/mL
COc1ccc2ccc(=O)n(CCN3C[C@H](CNCc4cc5c(cn4)OCCO5)[C@H](O)C3)c2c1 [Example 74, 1-[2-((3S,4S)-3-{[(2,3-dihydro[1,4]dioxino[2,3-c]pyridin-7-ylmethyl)amino]methyl}-4-hydroxy-1-pyrrolidinyl)ethyl]-7-(methyloxy)-2(1H)-quinolinone Hydrochloride]		MIC [1, 4]: ≤ 4 µg/mL
O=c1cnc2c(F)cc(F)cc2n1CCN1CCC(NCc2cc3c(nn2)OCCO3)CC1 [Example 120]	≤ 4	
Cc1cc(=O)n(CCN2CCC(NCc3cc4c(cn3)OCCO4)CC2)c2cc(F)ccc12 [Example 131, 1-(2-{4-[(2,3-Dihydro[1,4]dioxino[2,3-c]pyridin-7-ylmethyl)amino]-1-piperidinyl}ethyl)-7-fluoro-4-methyl-2(1H)-quinolinone Dihydrochloride]		MIC [1, 4]: ≤ 4 µg/mL
O=c1ccc2ccc(F)cc2n1CCN1CC[C@@H](O)[C@@H](CNCc2cc3c(cn2)OCCO3)C1 [Example 138, 1-[2-((3S,4R)-3-{[(2,3-Dihydro[1,4]dioxino[2,3-c]pyridin-7-ylmethyl)amino]methyl}-4-hydroxy-1-piperidinyl)ethyl]-7-fluoro-2(1H)-quinolinone Dihydrochloride]		MIC [1, 4]: ≤ 4 µg/mL
O=c1c(F)cc2ccc(F)cc2n1CCN1CCC(NCc2cc3c(cn2)OCCO3)CC1 [Example 180]	≤ 4	
CC(C)(O)c1c(F)cnc2ccc(=O)n(CCN3CCC(NCc4ccc5c(n4)NC(=O)CO5)CC3)c12 [Example 183]		MIC [2]: 16 µg/mL
COc1ccc2ncc(=O)n(CCN3C[C@H](CNCc4cc5c(cn4)OCCO5)[C@@H](O)C3)c2n1 [Example 225]	≤ 4	
COc1ccc2ncc(=O)n(CCN3C[C@H](CNCc4cc5c(cn4)OCCO5)[C@H](O)C3)c2c1 [Example 226]	≤ 4	
COc1ccc2ncc(=O)n(CCN3C[C@H](CNCc4ccn5ccc(=O)nc5c4)[C@H](O)C3)c2n1 [Example 272]		MIC [2]: > 16 µg/mL
O=c1ccc2ncccc2n1CCN1CCC(NCc2cc3ccccc3o2)CC1 [Example 282]	≤ 4	
O=c1ccc2ccc(F)cc2n1CCN1CCC(NCc2nc3ccccc3s2)CC1 [Example 287]	≤ 4	
O=c1ccc2ccccc2n1CCN1CCC(NCc2cc3ccccc3o2)CC1 [Example 288]	≤ 4	
O=c1ccc2ccccc2n1CCN1CCC(NCc2cc3cc(Cl)ccc3s2)CC1 [Example 289]	≤ 4	
COc1ccc2ccc(=O)n(CCN3CCC(NCc4ccc5nnn(C)c5c4)CC3)c2c1 [Example 302]	≤ 4	
